Results reported in US10570177B2, “P3 peptidylic inhibitors for treating CAG-repeat RNA toxicity in polyglutamine diseases” (The Chinese University of Hong Kong, priority 2017, dated 2020).
Marks after values point to notes of the source that are not given here. Residues, ends and D or L forms follow the SMILES beside them. *: point of attachment. Palmitoyl = CCCCCCCCCCCCCCCC(=O)*

Legend:
HEK293 cells = experiment: Cellular uptake studies in HEK293 cells (LC/MS); assay type: in vitro ADME; details: 3 hr; for cellular uptake: 100 nM peptide
Experimental: HEK293 cells were seeded on a 6-well plate at a density of 6×10^5 and cultured overnight at 37° C. with 5% CO2 in DMEM supplemented with 10% FBS and 1% penicillin-streptomycin. Cells were then treated with 100, 500 or 1000 nM of respective peptide at 37° C. for 3 hr. After treatment, the cells were washed with ice-cold PBS and then lysed by 2% SDS solution. Aliquot (100 μl) of the cell lysate was added with 200 μl acetonitrile and centrifuged at 13000 rcf for 10 min to precipitate the proteins. The collected supernatant was subjected to LC/MS analysis. The protein concentration of the cell lysate was measured using a bicinchoninic acid protein assay kit following Sigma's protocol.

[1] = Plasma pharmacokinetic study in SD rat; details: for AUC0-last: Intranasal administration (pre-treated with 0.5% chitosan)
Experimental: (§1) SD rats (180-200 g) were anesthetized with an intraperitoneal injection of ketamine (60 mg/kg) and xylazine (6 mg/kg) and received a minor surgery of cannulation with a polythene tube (0.4 mm i.d., 0.8 mm o.d., Harvard Apparatus, Holliston, Mass., USA) in the left jugular vein. The rats received an overnight recovery with free access to food and water. […] For the pharmacokinetic study, after the drug administration, blood samples were collected from the catheter at appropriate time intervals (2, 5, 10, 15, 20, 30, 45, 60, and 90 min). After each collection, 0.2 mL of saline containing 25 IU heparin was injected to compensate for the blood loss. Plasma was collected after centrifugation at 8000 rcf for 3.5 min and stored at −80° C. until analysis. For brain uptake study, at 20 min, the rat was anesthetized and perfused by 500 mL saline, and the whole brain was collected. The brain was wiped by tissue paper to remove excess water, meninges and blood vessels followed by storage at −80° C. until analysis.
Aliquot of plasma sample (80 μL) was mixed with 160 μL acetonitrile. The mixture was vortexed for 1 min and followed by centrifugation at 13000 rcf for 10 min. The supernatant was collect and subjected to LC/MS/MS analysis.
Agilent 6430 Triple Quadrupole LC/MS/MS system (Agilent Technologies, CA, USA) was employed for the analysis. For analysis of P3V8, chromatographic separation was achieved on a SunFire C8 Column (250 mm×4.6 mm, 5 μm). The mobile phase of water containing 0.2% formic acid (A) and acetonitrile (B) was used with a gradient elution (0-5 min, 20-70% B). The flow rate was 0.8 mL/min. Multiple reactions monitoring (MRM) with fragmentation transition of 500 to 129 in positive ion mode was employed for quantization of P3V8. […] Mobile phase of water (A) and acetonitrile (B) was used. The gradient elution for plasma samples was 0-4 min, 30-95% B, and for brain samples was 0-9 min, 10-95% B. The flow rate was 0.8 mL/min.
Plasma concentration verse time profiles were analyzed by WinNonlin (Pharsight Corporation, Mountain View, Calif., USA, Version 2.1) to obtain the pharmacokinetics parameters. Other data were analyzed by one-way ANOVA followed by post hoc Tukey test or unpaired t-test. “*”, “**”, “***” and “****” represent P<0.05, P<0.01, P<0.001 and P<0.0001 respectively, which are considered statistically significant.

[2] = Brain uptake study in SD rat
Experimental: as §1
To prepare brain homogenate, the whole brain of each rat was minced. Saline (2 mL/g brain) was added followed by ultrasonic probe homogenization on ice. For analysis of P3V8, aliquot of brain homogenate (100 μL) was mixed with 200 μL acetonitrile. The mixture was vortexed for 1 min and followed by centrifugation at 13000 rcf for 10 min to collect the supernatant. […]

pre-45s rRNA = experiment: Real-time PCR of pre-45s rRNA level in EGFPCAG78 RNA-expressing HEK293 cells; assay type: cell-based, human; details: with DeliverX
Experimental: It was next investigated whether P3V8 could also mitigate expanded CAG RNA-induced toxicity in mammalian cells. […] To compare the inhibitory activity of P3WT and P3V8, the peptide transfection reagent DeliverX (DX) was used to deliver P3WT and P3V8 to EGFPCAG78 RNA-expressing HEK293 cells. […] To confirm that P3V8 inhibited expanded CAG RNA-mediated nucleolar stress, the levels of pre-45s rRNA were measured in EGFPCAG78 RNA-expressing cells with or without treatment of P3V8 (FIG. 3C). Overexpression of the expanded CAG RNA reduced the level of pre-45s rRNA to approximately 40% of the untransfected control.
RNA was extracted from cells or ten 12 day-old adult fly heads by Trizol reagent (Life Technologies), and 1 μg of purified RNA was then used for reverse-transcription using the ImPromII™ Reverse Transcription System (Promega). Random hexamer (Roche) was used as primers in reverse transcription. Taqman gene expression assays were performed on an ABI 7500 Real-time PCR system and data were analyzed as previously described^13. The following probes were used: pre-45s rRNA (Assay ID: AILJIZM), pre-rRNA (Assay ID: AIMSG5U), Drosophila GAPDH (Assay ID: Dm01841186) and human actin (Assay ID: Hs99999903_m1). Each experiment was repeated at least 3 times.

[3] = Intravenous administration, 3 μmol/kg, SD rats

Molecule	cellular uptake (HEK293 cells)	cellular concentration compared to P3V8 (HEK293 cells; 500 nM and 1 μM treatment)	AUC0-last ([1]; 3 μmol/kg, SD rats)	Cmax [1, 3] [nM]	T1/2 [1, 3] [min]	plasma concentration 90 min after dosing ([1]; intravenous, 3 μmol/kg) [nM]	tissue level at time molar at 20 min ([2]; Sprague-Dawley, rat, in vivo, iv, 3 umol/kg) [nmol/g]	pre-45s rRNA level (pre-45s rRNA)	T1/2 ([1]; rat, in vivo, iv, 3 umol/kg)	brain concentration ([2]; 20 min after intravenous administration, 3 μmol/kg)
CCCCCCCCCCCCCCCC(=O)N[C@@H](CC(=O)O)C(=O)NCC(=O)N[C@@H](CCCCN)C(=O)N[C@@H](CO)C(=O)N[C@@H](CCCCN)C(=O)NCC(=O)N[C@H](C(=O)N[C@@H](C)C(=O)N[C@@H](Cc1ccc(O)cc1)C(=O)N[C@H](C(=O)N[C@@H](CCC(=O)O)C(=O)N[C@@H](Cc1ccccc1)C(=O)N[C@@H](CCCCN)C(N)=O)[C@@H](C)CC)[C@@H](C)CC [L1P3V8] (Palmitoyl-DGKSKGIAYIEFK-NH2)	low cellular concentration	higher cellular concentration	2277 ± 558*** min * nmol/L	10400 ± 1220	17	190	0.013			
Ac-DGKSKGIAYIEFK-NH2 [P3V8]	no uptake		85 ± 32 nmol·min/L	452 ± 22				dose-dependent restoration	too short to be determined	no and not detected
